Tests used:
[1] = Solubility in aqueous formulations; format: physicochemical; settings: 30 wt % Captisol (SBE-beta-CD) and 100 mM MSA
[2] = system: KRASG13R mutant MC38 tumor cell line; settings: cited from earlier work
c-Jun = test: Western blot of Phospho-c-Jun (T-91/93) in Panc-1 cells; format: cell-based, human
Protocol: Western Blot: Cells were harvested and lysed in cell lysis buffer on ice for 15 minutes and the lysate was centrifuged at 13,000 rpm at 4° C. for 10 minutes. The supernatant was transferred into a new tube for BCA protein quantification assay (Thermo Fisher Scientific) and the samples were normalized. 3× loading buffer (Cell Signaling) was added the protein sample and boiled for 5 minutes. The samples were used for SDS-PAGE analysis and transferred to nitrocellulose membrane. The membrane was blocked with 5% BSA at room temperature for 1 hour and incubated with primary antibody at 4° C. overnight. The membrane was washed with 1×TBST 5 minutes for 3 times and incubated with horseradish peroxidase-conjugated secondary antibody for 1 hour at room temperature. The protein was visualized by SuperSignal West Pico Stable Peroxide Solution (Thermo Fisher Scientific). The blot was visualized by chemiluminescence using a BioRad Versadoc Imaging System. Phosphorylation at T 91/93 in c-Jun was measured as a function of total c-Jun. Significant phosphorylation at T 91/93 was observed which has been reported to be associated with the activation of c-Jun's pro-apoptotic activity. […] FIG. 4A is a western blot of Phospho-c-Jun (T-91/93). […] Phosphorylation of c-Jun at T-91/93 is known to induce apoptosis. Total c-Jun protein level was unchanged. […]

[3] = system: irradiated mouse T-lymphocytes; test: In vitro viability assay on irradiated T-lymphocytes; format: cell-based; settings: T-lymphocyte
Protocol: FIG. 7A is a western blot showing PD-1 expression on human T-lymphocytes co-cultured with Panc-1 cells with no drug (vehicle) or 1, 6 and 12 hours with BCN057. FIG. 7B is a graph showing that the inhibition of GSK3b induces survival of Lymphocytes when exposed to radiation.
FIG. 8 is western blot showing PDL-1 expression (red arrow) on Panc-1 cells co cultured with human T-lymphocytes with no drug (vehicle) or 2.5, 5, 7.5 and 10 hrs. with BCN057. […] In a separate study using mouse T-lymphocytes, 2Gy radiation was used to induce apoptosis with increasing amounts of BCN057.

[4] = system: c-Jun in non-transformed HEK298 epithelial cells; test: c-Jun T 91/93 phosphorylation in non-transformed cells; format: cell-based; settings: data not shown
Protocol: Phosphorylation at T 91/93 in c-Jun was measured as a function of total c-Jun. Significant phosphorylation at T 91/93 was observed which has been reported to be associated with the activation of c-Jun's pro-apoptotic activity.

[5] = system: PD-1 expression on human T-lymphocytes; test: Western blot of PD-1 on T-lymphocytes co-cultured with Panc-1 cells; format: cell-based; settings: co-culture with Panc-1, 10 μM, sustained over 12 hours
Protocol: Cell lines and cell culture: Panc-1 cells were cultured in DMEM medium supplemented with 10% Fetal Bovine Serum and maintained at 37° C.5% CO2. Human Peripheral Blood Pan-T Cells were cultured in serum free T cells expansion media with 10 ng/ml of rhIL-2, T-cell activator and expanded as per the manufacturer instructions. Panc-1 cells and T-Cells were grown and expanded separately in T75 flasks. For co-culture experiments with Panc-1 cell, 2.5 million T-cells per well were plated in the well using a 6 well plate. 2.5 million Panc-1 Cells were plated in the thinsert which was placed into the well of the 6 well plate in order to have the cells physically separated but share media. The cells were incubated for 24 hours at 37° C., 5% CO2. At 24 hours the media was replaced with media containing vehicle, or 10 uM BCN057 and were incubated for the following timepoints: 1 hr, 6 hr, 12 hr, 24 hrs. The Panc-1 cells were removed by gently scraping the cells from the thinsert.
Western Blot: Cells were harvested and lysed in cell lysis buffer on ice for 15 minutes and the lysate was centrifuged at 13,000 rpm at 4° C. for 10 minutes. The supernatant was transferred into a new tube for BCA protein quantification assay (Thermo Fisher Scientific) and the samples were normalized. 3× loading buffer (Cell Signaling) was added the protein sample and boiled for 5 minutes. The samples were used for SDS-PAGE analysis and transferred to nitrocellulose membrane. The membrane was blocked with 5% BSA at room temperature for 1 hour and incubated with primary antibody at 4° C. overnight. The membrane was washed with 1×TBST 5 minutes for 3 times and incubated with horseradish peroxidase-conjugated secondary antibody for 1 hour at room temperature. The protein was visualized by SuperSignal West Pico Stable Peroxide Solution (Thermo Fisher Scientific). The blot was visualized by chemiluminescence using a BioRad Versadoc Imaging System.
BCN057 and Immune Checkpoint blockade: An emerging method of treatment for many forms of cancer, including PDAC, is immune checkpoint inhibitors. […]

Panc-1 cells = test: RealTime-Glo Annexin V Apoptosis and Necrosis Assay; format: cell-based, human; settings: serial dilutions, 10 minutes to 6 hours
Protocol: To validate the involvement of apoptosis in BCN057 induced cell death, the Panc1 cells with/without BCN057 were subjected to Anexin V staining. Anexin V staining was performed up to 6 hours and measured as a function of dose response of BCN057. […] FIG. 2B is a graph of Annexin V Apoptosis and Necrosis Assay in Panc-1 cells. Panc-1 cells were exposed to serial dilutions of BCN057 in the presence or absence of the RealTime-Glo™ Annexin V Apoptosis and Necrosis Assay Reagent. The plate was incubated at 37° C./5% CO2 and luminescence (Annexin V binding) was measured over a period of six hours. […] Apoptosis appeared to increase with increasing concentrations of BCN057.

COc1ccc2cc(-c3nc4ccc(C)cn4c3NCc3ccco3)c(=O)[nH]c2c1 [BCN057, 3-[(Furan-2-ylmethyl)-amino]-2-(7-methoxy-2-oxo-1,2-dihydro-quinolin-3-yl)-6-methyl-imidazo[1,2-a]pyridin-1-ium]
Solubility [1]: excellent solubility at up to pH 4.1 or higher | Tolerated radiation dose ([2]; BCN057 with radiation treatment versus radiation alone): able to tolerate much higher radiation doses | Tumor burden ([2]; mice receiving BCN057 versus control): significantly lower tumor burden than control | c-Jun phosphorylation at T-91/93 (c-Jun; KRAS mutant Panc-1 cells, within 20 minutes after drug treatment): significantly increases JNK dependent phosphorylation | Total c-Jun protein level (c-Jun; Panc-1 cells): unchanged | EC50 ([3]; light or radiation study, viability of irradiated mouse T-lymphocytes): 5.34 µM | EC50 ([3]; preservation of mouse T-lymphocytes, 2Gy radiation): 5.34 µM | c-Jun pro-apoptotic activity (T 91/93 phosphorylation) [4]: not found to be induced | PD-1 expression on human T-lymphocytes [5]: decreased significantly within the first hour | Apoptosis (Annexin V binding, luminescence) (Panc-1 cells): Dose and time dependent increase in apoptosis

— patent US20240376098A1, “METHODS OF TREATMENT USING BCN057, BCN077 AND ANALOGS” (BCN Biosciences L.L.C., priority 2021, published 2024)
